Like-named read-outs stand apart in the source and are kept apart here.
Experiments:
[1] = Example 7 Part II: food effect, single oral 200 mg 3-APS in young male subjects, plasma pharmacokinetics; type: in vivo, human; conditions: single oral 200 mg (Table 3 formulation); for Cmax: male, po, 200 mg
Procedure: (§1) In the following examples and elsewhere herein, terms are as defined below. The pharmacokinetic parameters were derived by non-compartmental analysis using WinNonlin® (Pharsight Corporation, Mountain View, Calif.) or SAS® for Windows® (SAS Institute Inc., Cary, N.C.).
Following single oral dosing of 200 mg 3-APS (modified-release coated formulation as described in Table 3 above) to young male subjects (aged between 18 and 45 years) under fasted and fed (high fat) conditions, maximum plasma concentrations of 3-APS are attained […] post-dose under fasted and fed conditions, respectively (Table 9A).

[2] = Example 8 Part I: multiple rising oral doses of NC-758 in healthy young male and elderly subjects, plasma pharmacokinetics; type: in vivo, human; conditions: fasted; for AUC∞: mean, only subjects with estimable elimination rate constant
Procedure: as §1
The pharmacokinetic profile of multiple rising oral doses of 3-APS free acid (NC-758 of Table 3 above) in healthy male young subjects (18-45 years) and healthy male and female elderly (≧55 years) subjects is assessed. For doses at multiples of 100 mg, multiple 100 mg tables are administered. […] Part I is a randomized, double-blind, placebo-controlled study to assess the pharmacokinetic profile of 2 multiple rising oral doses of NC-758 in healthy young (18-45 years) male subjects. […] In Part I, 3-APS is administered as a single dose on Days 1 and 12 and on Days 2-11, twice daily at 12 hour intervals. Blood samples are collected through 24 h after the first dose on Day 1, before each morning dose on Days 2 to 11, and through 48 h after the final dose on Day 12. For Part II, blood samples are collected through 36 h. Plasma concentrations of 3-APS are determined using a validated LC-MS/MS method.

[3] = Example 9 Part II: food effect, single oral 100 mg 3-APS in elderly subjects, plasma pharmacokinetics; type: in vivo; conditions: both sexes, human, single oral 100 mg (Table 5 tablet), elderly male and female subjects; for AUC(0-inf) / Cmax / AUC(0-t): po, 100 mg; for AUC(0-inf): mean, only subjects with estimable elimination rate constant; for Cmax / AUC(0-t): n = 8, mean; for AUC(0-t): read-out: AUC0-Tlast
Procedure: as §1
Following single oral dosing of 100 mg 3-APS (modified-release coated formulation modified-release enteric-coated tablet as described in Table 5 above) to elderly (55 years or older) male and female subjects under fasted and fed (high fat) conditions, maximum plasma concentrations of 3-APS are attained at 5 and 10.5 h post-dose under fasted and fed conditions, respectively (Table 12A below and FIG. 5 showing the Mean Plasma Concentration-Time Profiles of 3-APS under Fasted and Fed Conditions following Single Oral Administration of 100 mg to Elderly Male and Female Subjects).

[4] = Example 10: 3-APS concentration in cerebrospinal fluid of AD patients; type: in vivo; conditions: human
Excerpt: A multicenter, randomized, double-blind, placebo-controlled and parallel designed study is made with 3-APS in the formulation described in Table 5 above in patients suffering from mild to moderate Alzheimer's Disease (AD). An objective of this study is to assess the safety and tolerability of 3-APS and to assess its pharmacokinetics in AD patients. A total of fifty-eight (58) mild to moderate AD patients (MMSE scores=13 to 26) are enrolled from 6 centers in the United States. Patients are randomized to receive in 1:1:1:1 ratio of NC-758-1 at 50, 100, 150 mg BID or placebo BID for 12 weeks. Study medication is administered orally (tablet). For doses at multiples of 50 mg, multiple 50 mg tables are administered. Each patient is evaluated on 6 occasions at screening, baseline [Week 0], weeks 2, 4, 8 and 12. Blood samples are collected from each patient prior to dosing and at specified time points through 12 h post-dose after the first dose (Week 0) and the last dose (Week 12). Blood samples are also collected prior to the first dose of the day during Week 2, 4 and 8 visits.
(Patients having a CSF level below the lower limit of quantitation of the assay are considered as zero.) CSF concentrations of 3-APS on Day 2 of Week 12 after twice daily oral administration for 12 weeks are as follows: […]

[5] = Example 11: additional tests, crossing of the blood/brain barrier; type: in vivo, human; conditions: treated AD patients
[6] = Hygroscopicity of the drug substance; type: physicochemical
Procedure: Furthermore, the non-hygroscopic nature of the acid form makes it desirable as active pharmaceutical ingredient. To further protect against any possible gastrointestinal intolerance that could result from the acid form, the tablets are enteric-coated and a modified-release agent is added to control any rapid release of the drug in the stomach and the intestine, respectively.

[7] = NC-758 100 mg BID, Day 12 (repeated), young (18-45 years) male subjects, n = 6, mean
[8] = NC-758 200 mg BID, Day 1, elderly (≧55 years) male and female subjects, n = 6, mean
[9] = NC-758 200 mg BID, Day 1, young (18-45 years) male subjects, n = 6, mean
[10] = NC-758 200 mg BID, Day 12 (repeated), elderly (≧55 years) male and female subjects, n = 6, mean
[11] = NC-758 200 mg BID, Day 12 (repeated), young (18-45 years) male subjects, n = 5, mean

NCCCS(=O)(=O)O [3-APS, 3-amino-1-propanesulfonic acid]
AUC(0-inf) ([1]; human, plasma, Fasting Arm, mean, only subjects with estimable elimination rate constant): 2400 ng·h/mL
AUC(0-t) ([1]; human, plasma, Fed Arm (high fat), n = 8, mean, read-out: AUC0-Tlast): 3870 ng·h/mL
Tmax ([1]; human, plasma, Fed Arm (high fat), n = 8, median): 13.5 h
Cmax ([1]; human, plasma, Fasting Arm, n = 8, mean): 594 ng/mL
Cmax ([1]; human, plasma, Fed Arm (high fat), n = 8, mean): 631 ng/mL
AUC0-Tlast ([1]; Fasting Arm, n = 8, mean): 2196 ng·h/mL
AUC∞ ([1]; Fed Arm (high fat), mean, only subjects with estimable elimination rate constant): 4497 ng·h/mL
AUC∞ ([2]; NC-758 100 mg BID, Day 1, young (18-45 years) male subjects): 1017 ng·h/mL
Cmax ([2]; NC-758 100 mg BID, Day 1, young (18-45 years) male subjects, n = 6, mean): 282 ng/mL
AUC0-12h [2, 7]: 1434 ng·h/mL
Cmax [2, 7]: 256 ng/mL
AUC∞ ([2]; NC-758 200 mg BID, Day 1, elderly (≧55 years) male and female subjects): 5503 ng·h/mL
AUC0-12h [2, 8]: 5020 ng·h/mL
Cmax [2, 8]: 897 ng/mL
AUC∞ ([2]; NC-758 200 mg BID, Day 1, young (18-45 years) male subjects): 3206 ng·h/mL
AUC0-12h [2, 9]: 2865 ng·h/mL
Cmax [2, 9]: 517 ng/mL
AUC0-12h [2, 10]: 6287 ng·h/mL
Cmax [2, 10]: 880 ng/mL
AUC0-12h [2, 11]: 4152 ng·h/mL
Cmax [2, 11]: 581 ng/mL
AUC(0-inf) ([3]; Fasting Arm): 3290 ng·h/mL
Cmax ([3]; Fasting Arm): 931 ng/mL
AUC(0-t) ([3]; Fasting Arm): 3220 ng·h/mL
AUC(0-inf) ([3]; Fed Arm (high fat)): 2830 ng·h/mL
Cmax ([3]; Fed Arm (high fat)): 671 ng/mL
AUC(0-t) ([3]; Fed Arm (high fat)): 3400 ng·h/mL
Tmax ([3]; Fed Arm (high fat), n = 8, median): 10.5 h
concentration at 5 h ([4]; dose 50 mg twice daily oral for 12 weeks, Day 2 of Week 12, read-out: CSF concentration with mean ± standard deviation): 1.07 ± 1.8 ng/mL
concentration at 5 h ([4]; dose 100 mg twice daily oral for 12 weeks, Day 2 of Week 12, read-out: CSF concentration with mean ± standard deviation): 4.36 ± 2.66 ng/mL
concentration at 5 h ([4]; dose 150 mg twice daily oral for 12 weeks, Day 2 of Week 12, read-out: CSF concentration with mean ± standard deviation): 3.87 ± 2.74 ng/mL
concentration at 5 h ([4]; oral, 5 hours post-dose on Week 12, range of means across dose groups, levels below lower limit of quantitation considered as zero, read-out: mean concentrations of 3-APS in the cerebrospinal fluid (CSF)): 2.61 to 7.33 ng/mL
crossing of the blood/brain barrier [5]: crossed the blood/brain barrier
hygroscopic nature [6]: non-hygroscopic

Source: patent publication US20060251714A1, “Pharmaceutical formulations of amyloid inhibiting compounds” (priority 2005, published 2006)
